Measured values: a melting point compilation (Tetko et al.)

Row | melting point [°C] | SMILES
1 | 79 to 81 | CC(C)(C)OC(=O)NCc1cccc(O)c1
2 | 130 to 132 | CC(N)c1ccc2c(c1)NC(=O)CO2 (stereo not given)
3 | 202 to 204 | Nc1ccc2nc(-n3ccnc3)sc2c1
4 | 59 to 61 | COc1cccc(COCC(N)=NO)c1
5 | 89 to 91 | O=C(O)CNC(=O)COc1ccccc1
6 | 268 to 270 | Nc1nc2ncccc2[nH]1
7 | 111 to 113 | CCn1nc(N)cc1C1CC1
8 | 126 to 128 | O=C(NCc1cn[nH]c1)OCc1ccccc1
9 | 75 to 77 | O=C(c1ccccc1)c1ccc(Cl)cc1O
10 | 155 to 157 | Cc1c(NS(=O)(=O)c2cc(C(=O)O)cc(Cl)c2Cl)c(=O)n(-c2ccccc2)n1C
11 | 179 to 181 | NNc1nc(-c2ccc(Cl)cc2)no1
12 | 295 to 297 | O=C(O)c1ccc2c(c1)C(=O)N(c1ccc(F)cc1)C2=O
13 | 164 to 166 | CS(=O)(=O)Nc1ccc(S(=O)(=O)Cl)cc1F
14 | 221 to 223 | COc1ccc2nc(C)c(C(=O)O)cc2c1
15 | 195 to 197 | CC(C)(C)c1cc(C(=O)O)[nH]n1
16 | 157 to 159 | CC(=O)Oc1ccc2ccc(O)cc2c1
17 | 250 to 252 | CCC1Nc2ccc(C(=O)O)cc2NC1=O (stereo not given)
18 | 123 to 125 | CN(CC(=O)NC(C)(C)C)CC(N)=S
19 | 145 to 147 | COc1cc(C(=O)O)on1
20 | 123 to 125 | CCn1c(Cl)nnc1-c1ccccc1Cl
21 | 57 to 59 | CCCC(=O)NC1CCCNC1 (stereo not given)
22 | 79 to 81 | CS(=O)(=O)CCOc1cccc(N)c1
23 | 224 to 226 | O=C(O)c1n[nH]c(=O)[nH]c1=O

Row | melting point [°C] | SMILES
24 | 219 to 221 | Nc1nnc(-c2ccc(Br)c(F)c2)s1
25 | 127 to 129 | Cc1ccc2c(CCC(=O)O)c[nH]c2c1
26 | 73 to 75 | COc1cc(C)c(C(C)=O)cc1OC
27 | 167 to 169 | Cc1cc(N2CC(C(=O)O)CC2=O)ccc1Br (stereo not given)
28 | 127 to 129 | CC(=O)N1CCCc2cc(S(=O)(=O)Cl)ccc21
29 | 185 to 187 | O=C(O)Cc1coc(-c2cccs2)n1
30 | 173 to 175 | O=C(O)Cc1csc(-c2ncccn2)n1
31 | 174 to 176 | Cc1cc(C(=O)O)ccc1N1CCCS1(=O)=O
32 | 231 to 233 | O=C(O)c1cc(S(=O)(=O)NCc2ccccn2)c(Cl)cc1Cl
33 | 88 to 90 | CC(C)c1nccn1Cc1cccc(N)c1
34 | 100 to 110 | O=S(=O)(c1cccc(C(F)(F)F)c1)N1CCNCC1
35 | 159 to 161 | Nc1cc(-c2ccc(I)cc2)no1
36 | 63 to 65 | COC(=O)C(=O)CC(=O)c1ccc(C)cc1C
37 | 279 to 281 | O=C(Nc1cccc(C(=O)O)c1)Nc1ccc(Cl)c(Cl)c1
38 | 48 to 50 | C#CCOc1ccccc1O
39 | 101 to 103 | Cc1ccc(F)cc1NC(=O)C(C)Cl (stereo not given)
40 | 195 to 197 | COc1ccccc1-c1nn(-c2ccccc2)cc1C(=O)O
41 | 81 to 83 | COc1ccc(O)c(C(=O)c2ccccc2)c1
42 | 49 to 51 | CCOC(=O)c1ccc(N2CCNCC2)nc1
43 | 146 to 148 | CC(=O)Nc1ccsc1
44 | 61 to 63 | Cc1csc(Sc2ccc(N)c(C)c2)n1
45 | 168 to 170 | O=C(O)C1CCCCC1c1nc2ccccc2s1 (stereo not given)
46 | 96 to 98 | Cc1cc(C(=O)CCl)c(C)n1-c1cccc(C(F)(F)F)c1

Row | melting point [°C] | SMILES
47 | 166 to 168 | Cc1sc2nc(-c3ccccn3)nc(Cl)c2c1-c1ccccc1
48 | 137 to 139 | CCCN1CCCC(C(=O)O)C1 (stereo not given)
49 | 45 to 47 | N#CCc1ccc2ccccc2n1
50 | 131 to 133 | Cc1ccc(S(=O)(=O)C2(C(=O)O)CCCC2)cc1
51 | 274 to 276 | O=C(O)c1cnc2ccc(Br)cc2c1O
52 | 194 to 196 | O=C(O)CC(O)(c1nc2ccccc2o1)C(F)(F)F (stereo not given)
53 | 337 to 339 | Cc1cc(F)c2nc(O)cc(C(=O)O)c2c1
54 | 149 to 151 | CCC(CC)n1nc(C)cc1C(=O)O
55 | 68 to 70 | OC(CNCc1ccccc1)c1ccco1 (stereo not given)
56 | 144 to 146 | O=Cc1c(-c2ccccc2)nc2ccccn12
57 | 86 to 90 | Cc1cc(C(=O)CCl)c(C)n1-c1ccccc1F
58 | 195 to 197 | O=C(NC(Cc1ccccc1)C(=O)O)c1ccc(Cl)cc1 (stereo not given)
59 | 106 to 108 | CC(C)(C)Cc1cc(N)n[nH]1
60 | 149 to 151 | O=C(O)c1cnoc1-c1ccccc1
61 | 178 to 180 | NC(=S)CN1CCOCC1
62 | 38 to 40 | CCOC(=O)c1ccc(NC(=O)CCl)cc1
63 | 199 to 201 | NC(=O)NCc1ccc([N+](=O)[O-])cc1
64 | 369 to 371 | N#Cc1cnn2c(O)cc(CCl)nc12
65 | 198 to 200 | O=C(O)CNC(=O)CNS(=O)(=O)Cc1ccc(F)cc1
66 | 148 to 150 | O=C(O)c1cc2c(s1)CCOC2
67 | 154 to 156 | CNS(=O)(=O)c1ccc(S(N)(=O)=O)cc1
68 | 123 to 125 | O=C(O)Cc1cccc(OCc2ccccn2)c1
69 | 98 to 100 | Clc1ncc(Br)c2ccccc12

Row | melting point [°C] | SMILES
70 | 58 to 60 | Cn1ccnc1C(N)c1ccccc1F (stereo not given)
71 | 77 to 79 | O=C(Cc1ccccc1F)N1CCNCC1
72 | 45 to 47 | CCCOc1cc2c(cc1C=O)OC(C)C2 (stereo not given)
73 | 182 to 184 | O=C(O)c1ccc(=O)n(Cc2ccccc2Cl)c1
74 | 198 to 200 | O=C(O)CSCc1nc2sc3c(c2c(=O)[nH]1)CCC3
75 | 175 to 177 | O=C(O)C1CCCN1C(=O)NC1CCCCC1 (stereo not given)
76 | 185 to 187 | CN1C(=O)CCC(C(N)=O)C1c1cnn(C)c1 (stereo not given)
77 | 102 to 104 | CC(Cl)C(=O)Nc1ccccc1C(=O)NCc1ccco1 (stereo not given)
78 | 88 to 90 | COc1cc(OC)cc(N2CCC(N)C2=O)c1 (stereo not given)
79 | 155 to 157 | O=C(O)C(NC1CC1)c1cc(Br)cs1 (stereo not given)
80 | 204 to 206 | O=C(Nc1ccccc1C(=O)O)c1ccccc1I
81 | 76 to 78 | O=C1CCCC(=O)N1Cc1cccc(Br)c1
82 | 212 to 214 | NS(=O)(=O)c1ccc(C(=O)O)o1
83 | 140 to 142 | Cc1nn(-c2ccc(Cl)c(Cl)c2)c(C)c1CC(=O)O
84 | 258 to 260 | Nc1nncc(-c2ccc(Br)cc2)n1
85 | 60 to 62 | OC(CC1CCCCCN1)c1cccs1 (stereo not given)
86 | 153 to 155 | CC(C)(C)c1ccc(NC(N)=S)cc1
87 | 257 to 259 | CCOCCn1c(N)cc(=O)[nH]c1=O
88 | 101 to 103 | COc1ccccc1OCC(=O)NN
89 | 99 to 101 | N#Cc1cc(Cl)ccc1CO
90 | 184 to 186 | O=C(O)COc1ccc(C(F)(F)F)cc1
91 | 119 to 121 | COc1ccc2c(-c3ccccc3)cc(NN)nc2c1
92 | 188 to 190 | COc1ccc2cc(C(N)=S)ccc2c1

Row | melting point [°C] | SMILES
93 | 168 to 170 | O=C(O)c1ccc(Oc2ccc(Cl)cc2Cl)cc1
94 | 154 to 156 | O=C(O)C1CN(C(=O)c2ccco2)c2ccccc2O1 (stereo not given)
95 | 144 to 146 | O=C(O)c1cc(S(=O)(=O)Cl)c(Cl)cc1F
96 | 140 to 142 | Cc1ccc2c(CC(=O)O)coc2c1
97 | 65 to 68 | Cc1cc(S(=O)(=O)Nc2ccccc2C(=O)O)ccc1F
98 | 127 to 129 | COc1ccc(C(CN)c2c[nH]c3ccccc23)cc1 (stereo not given)
99 | 134 to 136 | CC(C)S(=O)(=O)Nc1ccc(S(N)(=O)=O)cc1F
100 | 91 to 93 | NNC(=O)Cc1ccncc1
101 | 130 to 134 | O=C(O)C=Cc1cc(Cl)cc(Cl)c1
102 | 196 to 198 | Cc1nc(=N)c(C)c(C)[nH]1
103 | 67 to 69 | CC(C)CC(NS(C)(=O)=O)C(=O)O (stereo not given)
104 | 161 to 163 | Nc1ccc(F)c(S(=O)(=O)Nc2ccc(Br)cc2)c1
105 | 131 to 133 | CCOC(=O)/C(C#N)=C\Nc1cc(OC)ccc1OC
106 | 117 to 119 | O=C(CCl)NC1CCN(C(=O)CCc2ccccc2)CC1
107 | 103 to 105 | COc1cccc(-c2noc(SCC(=O)O)n2)c1
108 | 179 to 181 | COc1ccc2[nH]c(NCc3ccccc3)nc2c1
109 | 214 to 216 | Cc1oncc1C(=O)Nc1ccc(C(=O)O)c(O)c1
110 | 125 to 127 | Cc1nn(C)c(C)c1CC(C)C(=O)O (stereo not given)
111 | 221 to 223 | O=C(O)c1cc(S(=O)(=O)NC2CC2)ccc1Br
112 | 183 to 185 | CC1(Cc2ccc3c(c2)OCO3)NC(=O)NC1=O (stereo not given)
113 | 214 to 216 | Nn1cnc2sccc2c1=O
114 | 47 to 49 | COc1ccc(C(C)(C)O)c(OCc2ccccc2)c1
115 | 189 to 191 | O=Cc1cn2cccnc2n1

Row | melting point [°C] | SMILES
116 | 129 to 131 | Cc1ccc(-c2nc(C(=O)O)cs2)c(C)c1
117 | 169 to 171 | Cc1ccc(C(=O)NO)cc1O
118 | 170 to 172 | O=C1NCC(=O)N2CCOCC12 (stereo not given)
119 | 163 to 165 | Cc1nn(-c2ccc(F)cc2F)c(C)c1CC(=O)O
120 | 81 to 83 | O=C(O)COC(c1ccccc1)c1ccccc1
121 | 85 to 87 | NS(=O)(=O)CC1CCOCC1
122 | 149 to 151 | COc1ccc(-n2nc(C(=O)O)cc2C)cc1
123 | 129 to 131 | Nc1cc(-c2ccoc2)nn1-c1ccccc1
124 | 64 to 66 | Cc1ccc(Oc2cccc(N(C)C)c2)c(N)c1
125 | 105 to 117 | CCOC(=O)c1noc(N)c1-c1ccccc1
126 | 92 to 94 | COc1cc(Br)c(S(=O)(=O)Cl)cc1OC
127 | 108 to 110 | Cc1nc(-c2cccc([N+](=O)[O-])c2)no1
128 | 148 to 150 | Cc1sc(C(=O)O)cc1S(=O)(=O)Cl
129 | 163 to 165 | C1CNc2nn[nH]c2C1
130 | 195 to 199 | O=C(O)Cn1c(=O)cnc2ccccc21
131 | 119 to 121 | CC(=O)c1cc2nc(C)ccc2o1
132 | 177 to 179 | O=C(O)CNC(=O)c1ccc(Br)s1
133 | 185 to 187 | Cc1c(N)cccc1S(=O)(=O)NC(C)(C)C

Row | SMILES | melting point [°C]
134 | CC(=O)Nc1ccc(CCN)cc1 | 121 to 123
135 | COc1ccc(C2CNC(=O)C2)cc1 (stereo not given) | 126 to 128
136 | COc1cc(C2(C(=O)O)CCCC2)ccc1C | 163 to 165
137 | COC(=O)C1CNC(=O)C1 (stereo not given) | 58 to 60
138 | O=C(O)c1cn(Cc2ccccc2)nc1-c1ccc(Cl)cc1 | 162 to 165
139 | COc1ccc2c(c1)c(C(=O)O)c(C)n2Cc1ccccc1 | 209 to 211
140 | O=C(CCl)c1sccc1Br | 75 to 77
